Results from PMC6594753, “Cystic fibrosis drug ivacaftor stimulates CFTR channels at picomolar concentrations” (eLife, 2019).
Values after ≈ are worked out from the molar mass of the structure shown. Where two headings read alike, the source gives them in different places.

What was measured:
[1] = Determination of Vx-770 solubility profile (incremental solvent addition; saturated saline, 1-octanol extraction, spectrophotometry at 311 nm); type: physicochemical; conditions: aqueous saline (standard bath solution), read-out: aqueous solubility Saq
WT CFTR [2] = biological target: T1, WT CFTR (Homo sapiens, UniProt P13569); assay: Ensemble fitting of gating models (Schemes 3 and 4) to on-off current time courses; type: biochemical; conditions: for EC50 / Kd: calculated from fit parameters; for kin: constrained kin/kout = 62580; for Kd: read-out: Kd;mem
T1 construct: expressed in transfected cells; host or cells: Xenopus laevis oocytes injected with cRNA transcribed from pGEMHE-CFTR
Source text: We next attempted to interpret the observed complex kinetics of the drug effects in terms of various molecular models (Figure 5a–d), by performing global fits of each model (Figure 5f, colored lines) to the ensemble of four experimentally observed current time courses: activation and deactivation upon addition and removal of 0.01x saturated (Figure 5f, gray trace) and 1x saturated (Figure 5f, black trace) Vx-770.
An alternative mechanism that could explain delayed activation by the drug is the presence of multiple drug binding sites, all of which must be occupied to switch the channel to a high open probability state. […] We therefore evaluated a simplistic model which postulates independent drug binding to two sites, with identical affinities, but a substantial change in open probability (from Po;bas to Po;max) only for diliganded channels (Scheme 3, Figure 5c).
Finally, assuming a two-compartment membrane and two drug-binding sites, both accessible from the outer leaflet (Scheme 4, Figure 5d), afforded a further small improvement (Figure 5f, red fit lines) relative to Scheme 3, albeit at the expense of an extra free parameter (Figure 5e, right).
The dynamic equations that describe the kinetic models depicted in Figure 5 are as follows:
• dx1(t)/dt = kin⋅Vc – 2⋅kout⋅x1(t) – kon'⋅(2⋅x2(t)+x3(t))⋅x1(t) + koff⋅(2⋅(Ct–x2(t)–x3(t))+x3(t)) • dx2(t)/dt = – 2⋅kon'⋅x1(t)⋅x2(t) + koff⋅x3(t) • dx3(t)/dt = 2⋅kon'⋅x1(t)⋅x2(t) + 2⋅koff⋅(Ct–x2(t)–x3(t)) – (koff +kon'⋅x1(t))⋅x3(t)
where x1(t) is the concentration of free Vx-770 in the membrane, x2(t) is the concentration of unliganded CFTR channels in the membrane, x3(t) is the concentration of monoliganded CFTR channels in the membrane, Ct is the total concentration of CFTR channels in the membrane, and Vc is the concentration of Vx-770 in the cytosol.
• dx1(t)/dt = kin⋅Vc – (kout +kflip)⋅x1(t) + kflip⋅x2(t) • dx2(t)/dt = kflip⋅x1(t) – (kout +kflip)⋅x2(t) – kon'⋅(2⋅x3(t)+x4(t))⋅x2(t) + koff⋅(2⋅(Ct–x3(t)–x4(t))+x4(t)) • dx3(t)/dt = – 2⋅kon'⋅x2(t)⋅x3(t) + koff⋅x4(t) • dx4(t)/dt = 2⋅kon'⋅x2(t)⋅x3(t) + 2⋅koff⋅(Ct–x3(t)–x4(t)) – (koff +kon'⋅x2(t))⋅x4(t)
where x1(t) is the concentration of Vx-770 in the inner membrane leaflet, x2(t) is the concentration of free Vx-770 in the outer membrane leaflet, x3(t) is the concentration of unliganded CFTR channels in the outer membrane leaflet, x4(t) is the concentration of monoliganded CFTR channels in the outer membrane leaflet, Ct is the total concentration of CFTR channels in the outer membrane leaflet, and Vc is the concentration of Vx-770 in the cytosol.
To calculate the value of Ct, the total number of channels in the patch (N) was estimated by assuming Po;bas=0.16 for prephosphorylated channels in ATP (cf., Figure 2c). For Schemes 1 and 3 the volume of the membrane patch was taken as 10^−16 liter (assuming a macroscopic patch surface area of ~4 μm^2 increased by ~5 fold at a microscopic level due to the presence of microvilli ([Dascal, 1987]), and a membrane thickness of ~5 nm), and for Schemes 2 and 4 the volume of the outer membrane leaflet was taken as 5⋅10^−17 liter. Ct was then calculated as N/NA divided by the relevant volume (NA, Avogadro's number).
For the ensemble fitting, all experimental current traces were normalized to their steady-state values observed prior to exposure to Vx-770. Predicted normalized on- and off- current time courses for each model were calculated from the above dynamic equations by solving for the time-dependent evolution of the vector x, using a modified Euler's method ([Press, 1992]). For the on- time courses the initial values for all xi were set to zero, for the off- time courses the final x vector of the preceding on- time course served as the initial vector while Vc was set to zero. […]

WT CFTR [3] = conditions: cited from earlier work
[4] = Scheme 3, average of global fits to three pairs of time courses
[5] = Scheme 4, average of global fits to three pairs of time courses

T1 sequence (P13569 whole entry): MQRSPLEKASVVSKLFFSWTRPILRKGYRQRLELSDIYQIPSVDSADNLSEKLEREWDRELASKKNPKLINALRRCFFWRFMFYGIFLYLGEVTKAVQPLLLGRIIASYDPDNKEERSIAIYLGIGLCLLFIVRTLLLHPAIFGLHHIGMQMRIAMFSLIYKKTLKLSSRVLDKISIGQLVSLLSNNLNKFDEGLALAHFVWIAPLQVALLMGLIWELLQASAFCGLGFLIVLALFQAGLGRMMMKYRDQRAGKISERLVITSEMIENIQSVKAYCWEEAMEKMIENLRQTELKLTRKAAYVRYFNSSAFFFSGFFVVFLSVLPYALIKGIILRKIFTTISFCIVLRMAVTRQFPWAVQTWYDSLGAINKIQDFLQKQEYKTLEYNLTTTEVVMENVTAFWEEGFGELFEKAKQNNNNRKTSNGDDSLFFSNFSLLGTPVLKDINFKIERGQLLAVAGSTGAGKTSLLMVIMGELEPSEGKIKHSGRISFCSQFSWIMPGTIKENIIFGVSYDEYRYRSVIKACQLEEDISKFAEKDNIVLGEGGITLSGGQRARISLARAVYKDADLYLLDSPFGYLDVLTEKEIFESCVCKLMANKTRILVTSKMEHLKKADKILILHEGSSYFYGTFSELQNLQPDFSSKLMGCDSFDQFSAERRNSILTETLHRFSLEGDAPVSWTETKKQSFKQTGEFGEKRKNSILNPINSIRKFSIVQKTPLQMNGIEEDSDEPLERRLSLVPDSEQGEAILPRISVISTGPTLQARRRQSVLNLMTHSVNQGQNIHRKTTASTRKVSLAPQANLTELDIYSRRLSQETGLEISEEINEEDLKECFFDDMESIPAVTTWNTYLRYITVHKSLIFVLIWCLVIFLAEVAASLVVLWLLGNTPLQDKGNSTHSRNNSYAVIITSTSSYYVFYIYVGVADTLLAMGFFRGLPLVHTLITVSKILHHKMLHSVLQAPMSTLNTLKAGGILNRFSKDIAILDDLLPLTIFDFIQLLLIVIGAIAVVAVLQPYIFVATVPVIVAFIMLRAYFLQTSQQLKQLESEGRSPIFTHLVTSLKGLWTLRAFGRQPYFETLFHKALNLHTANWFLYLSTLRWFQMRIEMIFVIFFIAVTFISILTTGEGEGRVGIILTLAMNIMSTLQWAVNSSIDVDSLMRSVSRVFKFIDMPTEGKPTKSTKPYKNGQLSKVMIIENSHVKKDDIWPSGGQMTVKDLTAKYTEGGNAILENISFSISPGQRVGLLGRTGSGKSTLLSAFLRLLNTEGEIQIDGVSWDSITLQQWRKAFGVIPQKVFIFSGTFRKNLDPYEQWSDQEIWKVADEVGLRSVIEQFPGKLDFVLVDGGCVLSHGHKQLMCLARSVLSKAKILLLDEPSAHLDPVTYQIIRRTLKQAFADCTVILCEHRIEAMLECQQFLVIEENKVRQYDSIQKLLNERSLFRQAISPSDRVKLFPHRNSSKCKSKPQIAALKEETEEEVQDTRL

**Q.** What does the source list for `CC(C)(C)c1cc(C(C)(C)C)c(NC(=O)c2c[nH]c3ccccc3c2=O)cc1O` [Vx-770, ivacaftor]?
**A.** solubility ([1]; pH 7.1, 37°C, pH = 7.1, aqueous saline): 0.138 ± 0.001 µM (≈ 0.0542 µg/mL); solubility at 24 h ([1]; pH 7.4, 25°C, pH = 7.4, aqueous saline): 0.05 ± 0.001 µM (≈ 0.0196 µg/mL); EC50 (WT CFTR [2]; Scheme 3, Figure 5f data set, read-out: K0.5;aq): 0.74 nM; kin (WT CFTR [2]; Scheme 3, average (mean ± S.E.M.) of global fits to three pairs of time courses): 4034 ± 464 s⁻¹; Po;max/Po;bas (WT CFTR [2]; [4]): 3.935 ± 0.001; koff (WT CFTR [2]; [4]): 0.00745 ± 0.000871 s⁻¹; kon (WT CFTR [2]; [4]): 870 ± 104 M⁻¹ s⁻¹; kout (WT CFTR [2]; [4]): 0.06446 ± 0.00742 s⁻¹; EC50 (WT CFTR [2]; Scheme 3, average of three fits, read-out: K0.5;aq): 0.675 ± 0.0895 nM; EC50 (WT CFTR [2]; Scheme 3, average of three fits, read-out: K0.5;mem): 21100 ± 2800 nM; Kd (WT CFTR [2]; Scheme 3, average of three fits): 8750 ± 1160 nM; koff (WT CFTR [2]; Scheme 3, global fit to data set of Figure 5f): 0.00651 s⁻¹; EC50 (WT CFTR [2]; Scheme 4, Figure 5f data set, read-out: K0.5;aq): 0.72 nM; kin (WT CFTR [2]; Scheme 4, average (mean ± S.E.M.) of global fits to three pairs of time courses): 9794 ± 531 s⁻¹; Po;max/Po;bas (WT CFTR [2]; [5]): 3.996 ± 0.007; kflip (WT CFTR [2]; [5]): 0.04408 ± 0.00583 s⁻¹; koff (WT CFTR [2]; [5]): 0.01075 ± 9e-05 s⁻¹; kon (WT CFTR [2]; [5]): 3700 ± 627 M⁻¹ s⁻¹; kout (WT CFTR [2]; [5]): 0.1565 ± 0.0085 s⁻¹; EC50 (WT CFTR [2]; Scheme 4, average of three fits, read-out: K0.5;aq): 0.669 ± 0.0955 nM; EC50 (WT CFTR [2]; Scheme 4, average of three fits, read-out: K0.5;mem): 7500 ± 1460 nM; Kd (WT CFTR [2]; Scheme 4, average of three fits): 3110 ± 605 nM; koff (WT CFTR [2]; Scheme 4, global fit to data set of Figure 5f): 0.0106 s⁻¹; maximal stimulation of WT CFTR channels (WT CFTR [3]; lower end of reported range, ref Cui and McCarty, 2015): ~ 1.1 fold; reversibility of CFTR channel stimulation in cell-free patches (WT CFTR [3]; ref Jih and Hwang, 2013, Lin et al., 2016, Yeh et al., 2015, 2017, Wang et al., 2014, 2018): irreversible; EC50 (WT CFTR [3]; ref Van Goor et al., 2014, Langron et al., 2018, read-out: previously reported K0.5 for stimulation of WT CFTR): ~300 nM; maximal stimulation of WT CFTR channels (WT CFTR [3]; upper end of reported range, ref Wang et al., 2018): ~ 3 fold
